Test results taken from paper PMC5630639 (Scientific Reports, 2017).
Entries after “also recorded” stand apart in the source; their conditions may differ.

Experiments:
MGC-803 cells [1] = test: CCK-8 proliferation assay, MGC-803; format: cell-based, human; settings: Homo sapiens, MGC-803; 48 h, CCK-8, mean ± SD
Experimental: (§1) All synthesized β-lactam-azide derivatives were evaluated for their antiproliferative activity against three cancer cell lines (MGC-803, MCF-7, A549) using CCK-8 proliferation assay. The well-known anticancer drug CA-4P was used as a control[36],[37].
(§2) MGC-803 cell line was obtained from the Chinese Academy of Sciences (Shanghai, China). MCF-7 and A549 were from the National Cell Center, China. MGC-803 cells were cultured in DMEM culture medium (DMEM, Biological Industries, Kibbutz Beit Haemek, Israel). A549 and MCF-7 cells were cultured in 1640 medium (1640, Biological Industries, Kibbutz Beit Haemek, Israel). All medium were supplemented with 10% fetal bovine serum, 100 U/ml penicillin (North China Pharmaceutical group Co.), and 100 µg/ml streptomycin (North China Pharmaceutical group Co.). All cells were cultured at 37 °C in a humidified incubator containing 5% CO2.
(§3) Synthesized analogues used in the study were dissolved in 100% cell culture grade DMSO and the final concentration of DMSO as <0.1% for testing on cancer cell lines. Cytotoxicity assays were performed on the human gastric carcinoma cell line MGC-803, the human mammary carcinoma cell line MCF-7, the human lung carcinoma cell line A549. Cells (3500–5000/well) were seeded into 96-well plates in 100 µL of culture medium. The cells were treated in triplicate with a gradient concentration of testing compounds and incubated at 37 °C, 5% CO2 for 48 h. For all cell lines, CCK-8 assay was performed to measure cytotoxic effects. The absorbance was measured using a microplate reader (BioTek Instrument, Inc. Vermont, USA) with a test wavelength of 450 nm. The absorbance levels were corrected against untreated control absorbance values. All experiments were performed in triplicate and SPSS17.0 was used for data analysis to obtain IC50 values.

MCF-7 cells = test: CCK-8 proliferation assay, MCF-7; format: cell-based, human; settings: Homo sapiens, MCF7; 48 h, CCK-8, mean ± SD
Experimental: as §1, §2, §3

A549 cells = test: CCK-8 proliferation assay, A549; format: cell-based, human; settings: Homo sapiens, A549; 48 h, CCK-8, mean ± SD
Experimental: as §1, §2, §3

[2] = test system: three cancer cell lines (MGC-803, MCF-7, A549); test: CCK-8 proliferation assay, three cancer cell lines together; format: cell-based; settings: Homo sapiens, 48 h, read-out: IC50 values toward three cancer cell lines
Experimental: as §1, §2
Synthesized analogues used in the study were dissolved in 100% cell culture grade DMSO and the final concentration of DMSO as <0.1% for testing on cancer cell lines. […] The absorbance was measured using a microplate reader (BioTek Instrument, Inc. Vermont, USA) with a test wavelength of 450 nm. The absorbance levels were corrected against untreated control absorbance values. […]

MGC-803 cells [3] = test: Western blotting of apoptosis-related proteins; format: cell-based, human; settings: concentration-dependent
Experimental: We next evaluated whether 28 induces apoptosis in MGC-803 cells by flow cytometry analysis of propidium iodide (PI) and Annexin V stained cells. […] When MGC-803 cells were incubated with 28 at 0.1, 0.2, and 0.3 μM for 24 h, the percentages of early apoptotic cells were 12.4%, 40.5%, and 49.7%, respectively and those of late apoptotic cells 2.1%, 10.1%, and 9.4%, respectively (Fig. 4A). Bcl-2 family proteins were crucial components of mitochondrial stress-induced cellular apoptosis. Thus, the expression of apoptosis-related proteins was also determined.
An Annexin V-FITC/PI kit (KeyGEN BioTECH, Nanjing, China) was used to detect apoptosis. Cells were seeded in 6-well plates and treated with 0, 0.1, 0.2 and 0.3 µM of 28 for 24 h. Then MGC-803 cells were collected and suspended in binding buffer containing Annexin V-FITC (0.5 mg/mL) and PI (0.5 mg/mL) and incubated in dark for 20 min and analyzed by flow cytometry (Becton, Dickinson and Company, NJ). The apoptosis related proteins of western blot analysis were conducted according to our previously reported method[31],[32].

MGC-803 cells [4] = test: Cell scarification assay; format: cell-based, human; settings: time-dependent and concentration-dependent
Experimental: In a transwell test, the average numbers of migrated cells in fields of control, 0.1 and 0.2 μM 28 treated MGC-803 cells were 29.4, 22.4 and 16.6, respectively (Fig. 6B and C). Based on the results from these tests, we next examined the protein expression of EMT-related makers such as E-cadherenin, N-cadherenin, ZO-1 and Vementin[55].
MGC-803 cells were seeded in 6-well plate until cells grew to confluence. Tips were used to make a scratch on cells. Control and 28 contained culture media without fetal bovine serum were added subsequently after 3 times of washing by PBS. Then the cells were cultured at 37 °C in a humidified incubator containing 5% CO2 and photos taken at 0, 16, 24 and 48 h, respectively.

MGC-803 xenograft = MGC-803 xenograft model in nude mice; format: in vivo, BALB/c nude mice; settings: for average tumor weight: 21 days (control 1.23 ± 0.28); for mean tumor volume at end of observation period: 21 days (control 1665.98 ± 568.36)
Experimental: To evaluate the potential antitumor effects of 28 in vivo, a MGC-803 xenograft model were established in nude mice by subcutaneously injecting MGC-803 cells at its logarithmic phase into the right flank of mice[56]. Tumor bearing mice were then randomly assigned to five groups (control, 100 mg/kg CA-4P, 25, 50, 100 mg/kg 28) with 10 mice per group. Then, the mice were gavaged with saline (control), CA-4P and different concentrations of 28 in saline solution daily. […] At the end of the observation period, mean tumor volumes of control, CA-4P, 25, 50, and 100 mg/kg 28 groups were 1665.98 ± 568.36 mm^3, 642.61 ± 449.92 mm^3, 788.18 ± 435.92 mm^3, 1125.93 ± 668.25 mm^3 and 1273.88 ± 513.69 mm^3, respectively. […] The antitumor activity of 28 in vivo was similar to that of CA-4P.
Animals were treated according to protocols established by the ethics committee of Zhengzhou University and the in vivo experiments were carried out in accordance with the approved guidelines and approved by the ethics committee of Zhengzhou University. BALB/c nude mice (18 g, aged 4–5 weeks) were purchased from Human SJA Laboratory Animal Co. Ltd. (Hunan, China). Mice were subcutaneously implanted with MGC-803 cells (5 × 10^6 cells per mouse) on the right flank of nude mice. Once tumor volumes reached to approximately 100 mm^3, the mice were randomly divided into corresponding saline, CA-4P (100 mg/kg), 28 (100 mg/kg), 28 (50 mg/kg) and 28 (25 mg/kg) treatment groups (n = 10 mice for each group). The treatment groups received intragastric administration of 28 and CA-4P per day for a period of 21 days. Then, the mice were euthanized and tumors isolated and weighed. Their body weights were measured and tumor sizes determined by vernier caliper measurement every other day.

IC50 (MGC-803 cells [1]): 106 ± 1 nM
IC50 (MCF-7 cells): 421 ± 47 nM
IC50 (A549 cells): 507 ± 52 nM
IC50 [2]: 106 to 507 nM
SMILES: COc1cc(N2C(=O)[C@H](c3cccs3)[C@H]2c2cccc(N=[N+]=[N-])c2)cc(OC)c1OC (relative stereo) [Compound 28, trans-4-(3-azidophenyl)-3-(thiophen-2-yl)-1-(3,4,5-trimethoxyphenyl)azetidin-2-one]
expression of Bcl-2 (MGC-803 cells [3]): decreased
expression of cleaved caspase-3, caspase-9 and PARP (MGC-803 cells [3]): increased
protein expression of BAX (MGC-803 cells [3]): increased
distances of scratches compared to control (MGC-803 cells [4]): obviously increased
inhibitory rate (tumor weight) (MGC-803 xenograft; 25 mg/kg, intragastric daily, 21 days): 59.34%
average tumor weight (MGC-803 xenograft; 25 mg/kg, intragastric daily): 0.53 ± 0.20 g
mean tumor volume at end of observation period (MGC-803 xenograft; 25 mg/kg, intragastric daily): 788.18 ± 435.92 mm^3
inhibitory rate (tumor weight) (MGC-803 xenograft; 50 mg/kg, intragastric daily, 21 days): 30.78%
average tumor weight (MGC-803 xenograft; 50 mg/kg, intragastric daily): 0.85 ± 0.32 g
mean tumor volume at end of observation period (MGC-803 xenograft; 50 mg/kg, intragastric daily): 1125.93 ± 668.25 mm^3
tumor growth (MGC-803 xenograft; 100 mg/kg, intragastric daily): considerable suppression of tumor growth
inhibitory rate (tumor weight) (MGC-803 xenograft; 100 mg/kg, intragastric daily, 21 days): 10.99%
average tumor weight (MGC-803 xenograft; 100 mg/kg, intragastric daily): 1.09 ± 0.31 g
mean tumor volume at end of observation period (MGC-803 xenograft; 100 mg/kg, intragastric daily): 1273.88 ± 513.69 mm^3
body weight of mice (MGC-803 xenograft; oral administration, 21 days): without causing significant loss of body weight; also recorded: without causing any obvious loss of body weight
